# Experimental data as given in ChEMBL document CHEMBL1201862, “PubChem BioAssay data set” (2004).
#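 Method: 48-hour compound exposure of cells in 96-well plates, five concentrations, linear interpolation of endpoints. GI50 marks 50% less growth.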 Activity calls are given as the source filed them. No stated cut-off is given here; in the data, active = GI50 up to about 1.1 µM and inactive = higher.
# Experiments:
# Experiment in all cases: NCI tumour cell line growth inhibition, 48 h
# NCI/ADR-RES = system: NCI/ADR-RES
# OVCAR-8 = system: OVCAR-8
# MOLT-4 = system: MOLT-4
# SK-OV-3 = system: SK-OV-3
# UACC-257 = system: UACC-257
# UACC-62 = system: UACC-62
# A549 = system: A549
# K562 = system: K562
# M14 = system: M14
# SK-MEL-28 = system: SK-MEL-28
# NCI-H23 = system: NCI-H23
# RXF 393 = system: RXF 393
# SW-620 = system: SW-620
# SNB-19 = system: SNB-19
# Malme-3M = system: Malme-3M
# LOX IMVI = system: LOX IMVI
# MDA-N = system: MDA-N
# ACHN = system: ACHN
# SF-268 = system: SF-268
# U-251 = system: U-251
Compound,GI50 (NCI/ADR-RES),GI50 (OVCAR-8),GI50 (MOLT-4),GI50 (SK-OV-3),GI50 (UACC-257),GI50 (UACC-62),GI50 (A549),GI50 (K562),GI50 (M14),GI50 (SK-MEL-28),GI50 (NCI-H23),GI50 (RXF 393),GI50 (SW-620),GI50 (SNB-19),GI50 (Malme-3M),GI50 (LOX IMVI),GI50 (MDA-N),GI50 (ACHN),GI50 (SF-268),GI50 (U-251)
Cn1cnc([N+](=O)[O-])c1Sc1nnc(-c2cccnc2)n1C,46.6 µM (inactive),21.3 µM (inactive),18.2 µM (inactive),> 100 µM (inactive),13.9 µM (inactive),17.3 µM (inactive),84.5 µM (inactive),19.9 µM (inactive),16.8 µM (inactive),17.5 µM (inactive),23.1 µM (inactive),7.83 µM (inactive),14.7 µM (inactive),> 100 µM (inactive),15.5 µM (inactive),17.8 µM (inactive),19.5 µM (inactive),17.1 µM (inactive),36.2 µM (inactive),43.6 µM (inactive)
Cc1cccc(NC(=S)Nc2cccc(Cl)c2)n1,> 96.4 µM (inactive),> 80.9 µM (inactive),> 100 µM (inactive),41.9 µM (inactive),> 100 µM (inactive),> 75.2 µM (inactive),> 100 µM (inactive),> 100 µM (inactive),> 100 µM (inactive),> 100 µM (inactive),> 100 µM (inactive),29.7 µM (inactive),> 100 µM (inactive),> 60.4 µM (inactive),> 100 µM (inactive),> 100 µM (inactive),> 100 µM (inactive),> 100 µM (inactive),> 67.8 µM (inactive),47.1 µM (inactive)
CC1(C)C2CCC(=O)C1CC2 (configuration not stated),> 100 µM (inactive),> 100 µM (inactive),> 100 µM (inactive),> 100 µM (inactive),> 100 µM (inactive),> 100 µM (inactive),> 100 µM (inactive),58.2 µM (inactive),> 100 µM (inactive),> 100 µM (inactive),> 100 µM (inactive),> 100 µM (inactive),> 100 µM (inactive),> 100 µM (inactive),> 100 µM (inactive),> 100 µM (inactive),> 100 µM (inactive),> 100 µM (inactive),> 100 µM (inactive),> 100 µM (inactive)
Cc1ccc(N2C=Nn3c(nc4sc5c(c4c3=O)CCCC5)C2)cc1,70.3 µM (inactive),62.1 µM (inactive),> 100 µM (inactive),> 100 µM (inactive),54.8 µM (inactive),> 100 µM (inactive),47.4 µM (inactive),38.5 µM (inactive),65.5 µM (inactive),93.5 µM (inactive),41.7 µM (inactive),24.8 µM (inactive),51.8 µM (inactive),78.2 µM (inactive),49.4 µM (inactive),47.4 µM (inactive),70.5 µM (inactive),46.5 µM (inactive),83 µM (inactive),46.7 µM (inactive)
CN(C(=O)Cc1ccc(Cl)c(Cl)c1)[C@@H]1CCCC[C@H]1[N+]1(C)CC=CC1,> 100 µM (inactive),> 100 µM (inactive),> 100 µM (inactive),> 100 µM (inactive),> 100 µM (inactive),> 100 µM (inactive),> 100 µM (inactive),> 100 µM (inactive),> 100 µM (inactive),> 100 µM (inactive),> 100 µM (inactive),> 100 µM (inactive),> 100 µM (inactive),> 100 µM (inactive),> 100 µM (inactive),> 100 µM (inactive),> 100 µM (inactive),> 100 µM (inactive),> 100 µM (inactive),> 100 µM (inactive)
O=C1C[C@H](COCc2ccccc2)NC(=O)C[C@H](COCc2ccccc2)NC(=O)C[C@H](COCc2ccccc2)N1,> 100 µM (inactive),> 100 µM (inactive),5.9 µM (inactive),19.5 µM (inactive),> 100 µM (inactive),> 100 µM (inactive),> 100 µM (inactive),3.52 µM (inactive),> 100 µM (inactive),> 100 µM (inactive),55.3 µM (inactive),11.5 µM (inactive),> 100 µM (inactive),18.6 µM (inactive),> 100 µM (inactive),> 100 µM (inactive),> 100 µM (inactive),16.4 µM (inactive),40.9 µM (inactive),12.6 µM (inactive)
CCOC(=O)c1cccc(NC(=O)CI)c1,0.5 µM (active),0.264 µM (active),0.0284 µM (active),0.918 µM (active),1.36 µM (inactive),0.575 µM (active),1.75 µM (inactive),0.191 µM (active),0.23 µM (active),2.2 µM (inactive),0.336 µM (active),1.36 µM (inactive),0.207 µM (active),3.54 µM (inactive),1.21 µM (inactive),0.123 µM (active),0.211 µM (active),0.682 µM (active),0.67 µM (active),0.313 µM (active)
CSCCCNC(=O)c1csc([C@@H](CSC)NC(=O)CCNC(=O)[C@@H](NC(=O)OCC(Br)(Br)Br)C(C)O)n1 (some centres not stated),> 100 µM (inactive),> 100 µM (inactive),> 100 µM (inactive),> 100 µM (inactive),> 100 µM (inactive),> 100 µM (inactive),> 100 µM (inactive),> 100 µM (inactive),> 100 µM (inactive),> 100 µM (inactive),> 100 µM (inactive),> 100 µM (inactive),> 100 µM (inactive),> 100 µM (inactive),> 100 µM (inactive),> 100 µM (inactive),> 100 µM (inactive),> 100 µM (inactive),> 100 µM (inactive),> 100 µM (inactive)
CCOC(=O)[C@H]1C[C@]23CN(C(=O)OC(C)(C)C)CC[C@H]2CCC2(SCCCS2)[C@@H]3N1C,27.2 µM (inactive),37.8 µM (inactive),24.3 µM (inactive),> 100 µM (inactive),25.6 µM (inactive),40.5 µM (inactive),37.8 µM (inactive),36.6 µM (inactive),30.8 µM (inactive),91 µM (inactive),42 µM (inactive),33.8 µM (inactive),47.8 µM (inactive),76 µM (inactive),28.4 µM (inactive),30.9 µM (inactive),30.1 µM (inactive),40.9 µM (inactive),50.4 µM (inactive),34.4 µM (inactive)
O=c1cc(-c2ccccc2)oc2ccc(Oc3nnnn3-c3ccccc3)cc12,78.2 µM (inactive),42 µM (inactive),> 100 µM (inactive),> 65.3 µM (inactive),> 100 µM (inactive),> 48.2 µM (inactive),> 90.8 µM (inactive),3.58 µM (inactive),> 100 µM (inactive),> 55.8 µM (inactive),> 62.7 µM (inactive),> 51.5 µM (inactive),> 100 µM (inactive),33.2 µM (inactive),> 100 µM (inactive),> 42.7 µM (inactive),5.15 µM (inactive),> 64.4 µM (inactive),11.8 µM (inactive),35 µM (inactive)
O=C1Oc2ccccc2C(=O)/C1=C\Nc1nc(-c2ccccc2)cs1,10.6 µM (inactive),8 µM (inactive),2.28 µM (inactive),33.4 µM (inactive),10.5 µM (inactive),5.36 µM (inactive),31 µM (inactive),7.66 µM (inactive),4.53 µM (inactive),16.1 µM (inactive),16.7 µM (inactive),12.4 µM (inactive),3.31 µM (inactive),19.9 µM (inactive),11.6 µM (inactive),5.2 µM (inactive),4.85 µM (inactive),11.2 µM (inactive),8.75 µM (inactive),11.8 µM (inactive)
O=P(Oc1ccccc1)(Oc1ccccc1)Oc1c[nH]c2ccccc12,3.45 µM (inactive),13.5 µM (inactive),6.53 µM (inactive),3.44 µM (inactive),8.55 µM (inactive),8.97 µM (inactive),11.1 µM (inactive),10.7 µM (inactive),11.3 µM (inactive),12.7 µM (inactive),10.1 µM (inactive),13.7 µM (inactive),13.4 µM (inactive),13.1 µM (inactive),16.2 µM (inactive),14.6 µM (inactive),11 µM (inactive),,11.1 µM (inactive),12.3 µM (inactive)
C=CC(CCc1ccc(C(=O)OCC)cc1)c1c(N)nc(N)[nH]c1=O (configuration not stated),> 100 µM (inactive),95.1 µM (inactive),59.4 µM (inactive),> 100 µM (inactive),35.1 µM (inactive),> 100 µM (inactive),> 100 µM (inactive),> 100 µM (inactive),> 100 µM (inactive),> 100 µM (inactive),91.8 µM (inactive),> 100 µM (inactive),> 100 µM (inactive),> 100 µM (inactive),89.9 µM (inactive),45.3 µM (inactive),76.6 µM (inactive),,> 100 µM (inactive),> 100 µM (inactive)
CSc1c(C#N)c(N)n(-c2ccc(Cl)cc2)c(=O)c1C#N,> 100 µM (inactive),67.8 µM (inactive),61.4 µM (inactive),> 100 µM (inactive),> 100 µM (inactive),> 100 µM (inactive),> 100 µM (inactive),> 100 µM (inactive),> 100 µM (inactive),> 100 µM (inactive),> 100 µM (inactive),> 100 µM (inactive),> 100 µM (inactive),> 100 µM (inactive),> 100 µM (inactive),> 100 µM (inactive),> 100 µM (inactive),,> 100 µM (inactive),> 100 µM (inactive)
